The values below are quoted from earlier work in patent publication US20220370477A1, “Solid Oral Dosage Forms Of Dexamethasone” (Jubilant Generics Limited, priority 2021, published 2022).

SMILES strings stand for the structures. Entries after “also recorded” stand apart in the source; their conditions may differ. Where two headings read alike, the source gives them in different places.

With `C[C@@H]1C[C@H]2[C@@H]3CCC4=CC(=O)C=C[C@]4(C)[C@@]3(F)[C@@H](O)C[C@]2(C)[C@@]1(O)C(=O)CO` [Dexamethasone, 9-fluoro-11β,17,21trihydroxy-16α-methylpregna-1,4-diene-3 ,20-dione], the Solubility entry is on record as “sparingly soluble” (in acetone); “slightly soluble” (in dichloromethane); “sparingly soluble” (in ethanol); “sparingly soluble” (in methanol); “practically insoluble; also recorded: poorly water-soluble” (in water).
